{
  "source": "ChEMBL document CHEMBL3627645",
  "about": "“Synthesis and activities of new indolopyrrolobenzodiazepine derivatives toward acute myeloid leukemia cells” (Bioorg Med Chem, 2015)",
  "data": [
    {"target": "T1, Serine/threonine-protein kinase pim-1 (Homo sapiens, UniProt P11309)", "test": "Inhibition of human Pim-1 using RSRHSSYPAGT as substrate assessed as residual activity at 10 uM measured for 30 mins in presence of [gamma-33P]-ATP relative to control", "units": {"Activity": "%"}, "values": [
      {"compound": "Cc1ccc(S(=O)(=O)NC2Cn3cc(C=O)c4ccc5c6ccccc6n(c5c43)C2)cc1", "note": "(centres undefined)", "Activity": 32},
      {"compound": "O=Cc1cn2c3c1ccc1c4ccccc4n(c13)CC(OCCCO)C2", "note": "(centres undefined)", "Activity": 21},
      {"compound": "O=Cc1cn2c3c1ccc1c4ccccc4n(c13)CC(OCCN1CCOCC1)C2", "note": "(centres undefined)", "Activity": 34},
      {"compound": "O=Cc1cn2c3c1ccc1c4ccccc4n(c13)CC(OCCN1CCCCC1)C2", "note": "(centres undefined)", "Activity": 30},
      {"compound": "CS(=O)(=O)OC1Cn2cc(C=O)c3ccc4c5ccccc5n(c4c32)C1", "note": "(centres undefined)", "Activity": 6.6},
      {"compound": "CN1CCN(CCCOC2Cn3cc(C=O)c4ccc5c6ccccc6n(c5c43)C2)CC1", "note": "(centres undefined)", "Activity": 22.4},
      {"compound": "CCN(CC)CCOC1Cn2cc(C=O)c3ccc4c5ccccc5n(c4c32)C1", "note": "(centres undefined)", "Activity": 35},
      {"compound": "Cc1ccc(S(=O)(=O)OCCCOC2Cn3cc(C=O)c4ccc5c6ccccc6n(c5c43)C2)cc1", "note": "(centres undefined)", "Activity": 94},
      {"compound": "O=Cc1cn2c3c1ccc1c4ccccc4n(c13)CC(O)C2", "note": "(centres undefined)", "Activity": 5}
    ]},
    {"target": "T1, Serine/threonine-protein kinase pim-1", "test": "Inhibition of human Pim-1 using RSRHSSYPAGT as substrate assessed as residual activity at 1 uM measured for 30 mins in presence of [gamma-33P]-ATP relative to control", "units": {"Activity": "%"}, "values": [
      {"compound": "Cc1ccc(S(=O)(=O)NC2Cn3cc(C=O)c4ccc5c6ccccc6n(c5c43)C2)cc1", "note": "(centres undefined)", "Activity": 52},
      {"compound": "O=Cc1cn2c3c1ccc1c4ccccc4n(c13)CC(OCCCO)C2", "note": "(centres undefined)", "Activity": 54.9},
      {"compound": "O=Cc1cn2c3c1ccc1c4ccccc4n(c13)CC(OCCN1CCOCC1)C2", "note": "(centres undefined)", "Activity": 57},
      {"compound": "O=Cc1cn2c3c1ccc1c4ccccc4n(c13)CC(OCCN1CCCCC1)C2", "note": "(centres undefined)", "Activity": 82},
      {"compound": "CS(=O)(=O)OC1Cn2cc(C=O)c3ccc4c5ccccc5n(c4c32)C1", "note": "(centres undefined)", "Activity": 24},
      {"compound": "CN1CCN(CCCOC2Cn3cc(C=O)c4ccc5c6ccccc6n(c5c43)C2)CC1", "note": "(centres undefined)", "Activity": 58.2},
      {"compound": "CCN(CC)CCOC1Cn2cc(C=O)c3ccc4c5ccccc5n(c4c32)C1", "note": "(centres undefined)", "Activity": 78},
      {"compound": "Cc1ccc(S(=O)(=O)OCCCOC2Cn3cc(C=O)c4ccc5c6ccccc6n(c5c43)C2)cc1", "note": "(centres undefined)", "Activity": 81},
      {"compound": "O=Cc1cn2c3c1ccc1c4ccccc4n(c13)CC(O)C2", "note": "(centres undefined)", "Activity": 38}
    ]},
    {"target": "T2, Serine/threonine-protein kinase pim-3 (Homo sapiens, UniProt Q86V86)", "test": "Inhibition of Pim-3 (unknown origin)", "units": {"IC50": "nM"}, "values": [
      {"compound": "O=Cc1cn2c3c1ccc1c4ccccc4n(c13)CCC2", "IC50": 50},
      {"compound": "O=Cc1cn2c3c1ccc1c4ccccc4n(c13)CCCCC2", "IC50": 26}
    ]},
    {"target": "T1, Serine/threonine-protein kinase pim-1", "test": "Inhibition of human Pim-1 using RSRHSSYPAGT as substrate measured for 30 mins in presence of [gamma-33P]-ATP", "units": {"IC50": "nM"}, "values": [
      {"compound": "CS(=O)(=O)OC1Cn2cc(C=O)c3ccc4c5ccccc5n(c4c32)C1", "note": "(centres undefined)", "IC50": 1560},
      {"compound": "O=Cc1cn2c3c1ccc1c4ccccc4n(c13)CC(O)C2", "note": "(centres undefined)", "IC50": 1400}
    ]},
    {"target": "T2, Serine/threonine-protein kinase pim-3", "test": "Inhibition of human Pim-3 using RSRHSSYPAGT as substrate assessed as residual activity at 1 uM measured for 30 mins in presence of [gamma-33P]-ATP relative to control", "units": {"Activity": "%"}, "values": [
      {"compound": "Cc1ccc(S(=O)(=O)NC2Cn3cc(C=O)c4ccc5c6ccccc6n(c5c43)C2)cc1", "note": "(centres undefined)", "Activity": 55},
      {"compound": "O=Cc1cn2c3c1ccc1c4ccccc4n(c13)CC(OCCCO)C2", "note": "(centres undefined)", "Activity": 49.6},
      {"compound": "O=Cc1cn2c3c1ccc1c4ccccc4n(c13)CC(OCCN1CCOCC1)C2", "note": "(centres undefined)", "Activity": 65.8},
      {"compound": "O=Cc1cn2c3c1ccc1c4ccccc4n(c13)CC(OCCN1CCCCC1)C2", "note": "(centres undefined)", "Activity": 54},
      {"compound": "CS(=O)(=O)OC1Cn2cc(C=O)c3ccc4c5ccccc5n(c4c32)C1", "note": "(centres undefined)", "Activity": 25},
      {"compound": "CN1CCN(CCCOC2Cn3cc(C=O)c4ccc5c6ccccc6n(c5c43)C2)CC1", "note": "(centres undefined)", "Activity": 51},
      {"compound": "CCN(CC)CCOC1Cn2cc(C=O)c3ccc4c5ccccc5n(c4c32)C1", "note": "(centres undefined)", "Activity": 59},
      {"compound": "Cc1ccc(S(=O)(=O)OCCCOC2Cn3cc(C=O)c4ccc5c6ccccc6n(c5c43)C2)cc1", "note": "(centres undefined)", "Activity": 70.8},
      {"compound": "O=Cc1cn2c3c1ccc1c4ccccc4n(c13)CC(O)C2", "note": "(centres undefined)", "Activity": 13.3}
    ]},
    {"target": "T1, Serine/threonine-protein kinase pim-1", "test": "Inhibition of Pim-1 (unknown origin)", "units": {"IC50": "nM"}, "values": [
      {"compound": "O=Cc1cn2c3c1ccc1c4ccccc4n(c13)CCC2", "IC50": 42},
      {"compound": "O=Cc1cn2c3c1ccc1c4ccccc4n(c13)CCCCC2", "IC50": 9}
    ]},
    {"target": "T2, Serine/threonine-protein kinase pim-3", "test": "Inhibition of human Pim-3 using RSRHSSYPAGT as substrate assessed as residual activity at 10 uM measured for 30 mins in presence of [gamma-33P]-ATP relative to control", "units": {"Activity": "%"}, "values": [
      {"compound": "Cc1ccc(S(=O)(=O)NC2Cn3cc(C=O)c4ccc5c6ccccc6n(c5c43)C2)cc1", "note": "(centres undefined)", "Activity": 34},
      {"compound": "O=Cc1cn2c3c1ccc1c4ccccc4n(c13)CC(OCCCO)C2", "note": "(centres undefined)", "Activity": 16},
      {"compound": "O=Cc1cn2c3c1ccc1c4ccccc4n(c13)CC(OCCN1CCOCC1)C2", "note": "(centres undefined)", "Activity": 35},
      {"compound": "O=Cc1cn2c3c1ccc1c4ccccc4n(c13)CC(OCCN1CCCCC1)C2", "note": "(centres undefined)", "Activity": 22.2},
      {"compound": "CS(=O)(=O)OC1Cn2cc(C=O)c3ccc4c5ccccc5n(c4c32)C1", "note": "(centres undefined)", "Activity": 8.1},
      {"compound": "CN1CCN(CCCOC2Cn3cc(C=O)c4ccc5c6ccccc6n(c5c43)C2)CC1", "note": "(centres undefined)", "Activity": 26},
      {"compound": "CCN(CC)CCOC1Cn2cc(C=O)c3ccc4c5ccccc5n(c4c32)C1", "note": "(centres undefined)", "Activity": 28},
      {"compound": "Cc1ccc(S(=O)(=O)OCCCOC2Cn3cc(C=O)c4ccc5c6ccccc6n(c5c43)C2)cc1", "note": "(centres undefined)", "Activity": 79},
      {"compound": "O=Cc1cn2c3c1ccc1c4ccccc4n(c13)CC(O)C2", "note": "(centres undefined)", "Activity": 3.5}
    ]},
    {"target": "T2, Serine/threonine-protein kinase pim-3", "test": "Inhibition of human Pim-3 using RSRHSSYPAGT as substrate measured for 30 mins in presence of [gamma-33P]-ATP", "units": {"IC50": "nM"}, "values": [
      {"compound": "CS(=O)(=O)OC1Cn2cc(C=O)c3ccc4c5ccccc5n(c4c32)C1", "note": "(centres undefined)", "IC50": 600},
      {"compound": "O=Cc1cn2c3c1ccc1c4ccccc4n(c13)CC(O)C2", "note": "(centres undefined)", "IC50": 380}
    ]}
  ]
}
